From ChEMBL document CHEMBL1201862, “PubChem BioAssay data set” (2004)
Active and inactive are the calls of the source.

What was measured:
[1] = cells; format: functional
[2] = system: Streptococcus; assay: GAS UMAA2166 growth inhibition – luminescence, BacTiterGlo, counter-screen for streptokinase expression inhibitor project, dose response (AID 1915); format: functional, organism-based;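 further: potency for reduction of bacterial viability or growth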
[3] = THP-1 cell cytotoxicity, dose response, cytotoxicity control for non-replicating M. tuberculosis project (AID 489025); format: functional
[4] = system: Streptococcus sp. 'group A'; assay: Streptococcus pyogenes SK(-)GAS viability under kanamycin – luminescence, BacTiterGlo, confirmation, counter-screen for streptokinase expression inhibitor project, dose response (AID 1900); format: functional, organism-based
[5] = system: H9c2; assay: cells; format: functional, cell-based; conditions: Rattus norvegicus, H9c2, Myocardium;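 further: confirmatory concentration-response retest of ultra-high-throughput screening hits for modulation of myocardial damage; cell death induced by hydrogen peroxide oxidative stress; compound pretreatment for 60 min then peroxide exposure for 2 h; potency is for protecting the cells against peroxide damage rather than for killing them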
[6] = HIV-1 AD8 envelope cell-cell fusion blockers – cherry-pick, dose response (AID 652062); format: functional, cell-based;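 further: luciferase signal from cell-cell fusion driven by HIV-1 clade B AD8 Env; potency is for inhibitors of fusion seen as a drop in luminescence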
[7] = blockers of HIV-1 envelope-mediated cell-cell fusion – cherry-pick, dose response (AID 652057); format: functional, cell-based
[8] = viability of PTEN-deleted HCT116 cells – cell-based, HCT116 PTEN knockout, dose response (AID 1047); format: functional;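 further: HCT116 colon tumor cells with PTEN knocked out; cells exposed to compound for 60 hours before readout; potency for loss of cell viability measured by luminescence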
[9] = viability of HCT116 lacking mutant beta-catenin – cell-based, human colon tumor, dose response (AID 1045); format: functional;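 further: HCT116 colon tumor cells with beta catenin knocked out; cells exposed to compound for 60 hours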
[10] = P. falciparum Dd2 growth inhibitors, dose response, SYBR Green, cherry-picked samples (AID 1159567); format: functional, cell-based
[11] = target: T1, Fatty acid synthase (Homo sapiens, UniProt P49327); assay: inhibition of human FAS-TE enzyme activity – biochemical, kinetic fluorescence intensity, dose response (AID 624326); format: functional;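 further: rate of fluorescence rise from hydrolysis of a fluorogenic O-methyl fluorescein ester substrate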
[12] = target: T1, Fatty acid synthase; assay: inhibition of human FAS-TE enzyme activity – biochemical, endpoint fluorescence intensity, uHTS hits, dose response (AID 624327); format: functional;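 further: fluorescence from hydrolysis of an O-methyl fluorescein acyl ester substrate by the enzyme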
[13] = target: T2, Cytochrome P450 1A2 (Homo sapiens, UniProt P05177);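 further: PubChem cytochrome P450 panel assay, CYP1A2 panel member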
T2 sequence (P05177 whole entry): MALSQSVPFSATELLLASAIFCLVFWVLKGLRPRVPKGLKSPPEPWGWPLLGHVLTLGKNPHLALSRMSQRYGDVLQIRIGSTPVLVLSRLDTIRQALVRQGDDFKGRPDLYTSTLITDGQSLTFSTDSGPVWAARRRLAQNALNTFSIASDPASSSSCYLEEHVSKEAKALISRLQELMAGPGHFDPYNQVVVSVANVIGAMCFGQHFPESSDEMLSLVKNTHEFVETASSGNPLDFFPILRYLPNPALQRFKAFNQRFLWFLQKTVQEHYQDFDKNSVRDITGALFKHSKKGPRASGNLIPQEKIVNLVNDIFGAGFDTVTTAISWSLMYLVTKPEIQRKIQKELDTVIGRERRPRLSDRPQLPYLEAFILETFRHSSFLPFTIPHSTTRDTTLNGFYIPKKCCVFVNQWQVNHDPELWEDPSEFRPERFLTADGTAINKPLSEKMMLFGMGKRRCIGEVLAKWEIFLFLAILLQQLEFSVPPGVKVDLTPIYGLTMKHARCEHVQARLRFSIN

[14] = target: Cytochrome P450 3A4 (Homo sapiens, UniProt P08684);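 further: CYP3A4 tested as one member of a cytochrome P450 panel screen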
[15] = system: BJ; assay: cells; format: functional, cell-based; conditions: Homo sapiens
[16] = Luminescence Cell-Based Dose Confirmation HTS to Identify Inhibitors of Platelet Dense Granule Release. [Related pubchem assays: 1663 (Primary HTS), 1678 (Summary of Project)]; format: functional
[17] = DRD fibroblast viability loss – cell-based, non-viral oncogenic, luminescence, dose response (AID 1934); format: functional; conditions: Homo sapiens
[18] = Luminescence Cell-Based Dose Response HTS to Identify Inhibitors of 5'UTR Stem-Loop Driven Prion Protein mRNA Translation in H4 Neuroglioblastoma Cells. [Related pubchem assays: 1827 (Project Summary), 1813 (Primary HTS)]; format: functional
[19] = system: BJ; assay: BJ-TERT-LT-ST fibroblast viability loss – cell-based, RAS-independent, luminescence, dose response (AID 1935); format: functional; conditions: Homo sapiens;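 further: BJ fibroblasts immortalized with TERT plus LT and ST oncogenes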
[20] = system: BJ; assay: BJ-TERT fibroblast viability loss – cell-based, RAS-independent, luminescence, dose response (AID 1933); format: functional; conditions: Homo sapiens
[21] = target: Luciferin 4-monooxygenase (Photinus pyralis, UniProt P08659); assay: inhibition of purified Photinus pyralis luciferase – biochemical, luminescence, dose response (AID 1891)
[22] = alpha-synuclein stem-loop luciferase translation blockers – H4 neuroglioma cells, luminescence, confirmation (AID 1988); format: functional, cell-based
[23] = target: T3, Protein RecA (Mycobacterium tuberculosis, UniProt P9WHJ3); assay: Fluorescence Cell-Free Homogeneous Dose Retest to Identify Inhibitors of RecA-Intein Splicing Activity. [Related pubchem assays (depositor defined):AID2097, AID2223, AID489010, AID492950]; format: functional
T3 sequence (P9WHJ3 whole entry): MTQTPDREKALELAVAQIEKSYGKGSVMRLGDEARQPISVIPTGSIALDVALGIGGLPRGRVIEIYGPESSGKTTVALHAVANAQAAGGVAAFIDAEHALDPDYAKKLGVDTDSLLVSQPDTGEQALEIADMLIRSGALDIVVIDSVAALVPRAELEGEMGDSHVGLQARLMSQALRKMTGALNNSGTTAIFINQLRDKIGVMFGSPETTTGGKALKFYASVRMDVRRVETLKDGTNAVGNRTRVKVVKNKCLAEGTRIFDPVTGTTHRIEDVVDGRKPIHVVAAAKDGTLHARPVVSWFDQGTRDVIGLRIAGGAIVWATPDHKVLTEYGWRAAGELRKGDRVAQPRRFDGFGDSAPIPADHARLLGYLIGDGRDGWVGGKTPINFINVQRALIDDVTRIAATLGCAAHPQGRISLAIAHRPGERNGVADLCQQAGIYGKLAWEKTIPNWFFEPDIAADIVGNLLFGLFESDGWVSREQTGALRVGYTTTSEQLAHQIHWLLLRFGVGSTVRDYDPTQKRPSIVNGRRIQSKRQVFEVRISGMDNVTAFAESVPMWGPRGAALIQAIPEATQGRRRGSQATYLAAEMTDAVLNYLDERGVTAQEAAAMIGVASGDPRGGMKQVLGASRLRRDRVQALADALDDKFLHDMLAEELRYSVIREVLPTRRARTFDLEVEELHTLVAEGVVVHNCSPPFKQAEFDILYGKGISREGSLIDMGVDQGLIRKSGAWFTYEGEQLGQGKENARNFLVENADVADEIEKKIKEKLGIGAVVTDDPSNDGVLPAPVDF

[24] = target: T4, Replicative DNA helicase DnaB (Mycobacterium tuberculosis, UniProt P9WMR3); assay: DnaB intein splicing inhibitors, dose response, biochemical, cell-free fluorescence (AID 449749); format: functional
T4 sequence (P9WMR3 whole entry): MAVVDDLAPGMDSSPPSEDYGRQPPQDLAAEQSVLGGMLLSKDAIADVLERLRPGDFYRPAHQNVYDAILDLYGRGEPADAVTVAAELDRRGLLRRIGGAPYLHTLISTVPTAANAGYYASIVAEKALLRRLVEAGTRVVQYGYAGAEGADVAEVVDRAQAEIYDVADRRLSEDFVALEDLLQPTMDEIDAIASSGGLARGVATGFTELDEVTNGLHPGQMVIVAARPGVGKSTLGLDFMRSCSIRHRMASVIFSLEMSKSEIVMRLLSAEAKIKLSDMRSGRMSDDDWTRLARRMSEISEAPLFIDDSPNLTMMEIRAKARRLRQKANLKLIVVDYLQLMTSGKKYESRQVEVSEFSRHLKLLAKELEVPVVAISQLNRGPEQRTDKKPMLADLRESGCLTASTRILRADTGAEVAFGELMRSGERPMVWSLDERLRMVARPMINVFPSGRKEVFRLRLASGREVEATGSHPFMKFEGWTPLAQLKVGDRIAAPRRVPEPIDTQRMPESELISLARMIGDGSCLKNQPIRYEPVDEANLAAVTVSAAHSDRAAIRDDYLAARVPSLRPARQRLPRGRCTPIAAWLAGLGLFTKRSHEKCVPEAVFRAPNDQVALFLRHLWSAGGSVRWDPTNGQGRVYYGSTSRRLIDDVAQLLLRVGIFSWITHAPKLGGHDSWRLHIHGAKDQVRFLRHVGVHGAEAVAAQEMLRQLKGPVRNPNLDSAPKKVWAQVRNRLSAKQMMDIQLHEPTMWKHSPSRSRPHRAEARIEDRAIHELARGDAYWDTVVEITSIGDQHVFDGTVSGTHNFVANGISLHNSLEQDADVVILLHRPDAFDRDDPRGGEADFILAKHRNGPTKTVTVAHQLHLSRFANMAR

[25] = luciferase reporter signal suppression in cells – H4 neuroglioma cells, luminescence, dose response (AID 1990); format: functional, cell-based

T1 sequence (P49327 whole entry): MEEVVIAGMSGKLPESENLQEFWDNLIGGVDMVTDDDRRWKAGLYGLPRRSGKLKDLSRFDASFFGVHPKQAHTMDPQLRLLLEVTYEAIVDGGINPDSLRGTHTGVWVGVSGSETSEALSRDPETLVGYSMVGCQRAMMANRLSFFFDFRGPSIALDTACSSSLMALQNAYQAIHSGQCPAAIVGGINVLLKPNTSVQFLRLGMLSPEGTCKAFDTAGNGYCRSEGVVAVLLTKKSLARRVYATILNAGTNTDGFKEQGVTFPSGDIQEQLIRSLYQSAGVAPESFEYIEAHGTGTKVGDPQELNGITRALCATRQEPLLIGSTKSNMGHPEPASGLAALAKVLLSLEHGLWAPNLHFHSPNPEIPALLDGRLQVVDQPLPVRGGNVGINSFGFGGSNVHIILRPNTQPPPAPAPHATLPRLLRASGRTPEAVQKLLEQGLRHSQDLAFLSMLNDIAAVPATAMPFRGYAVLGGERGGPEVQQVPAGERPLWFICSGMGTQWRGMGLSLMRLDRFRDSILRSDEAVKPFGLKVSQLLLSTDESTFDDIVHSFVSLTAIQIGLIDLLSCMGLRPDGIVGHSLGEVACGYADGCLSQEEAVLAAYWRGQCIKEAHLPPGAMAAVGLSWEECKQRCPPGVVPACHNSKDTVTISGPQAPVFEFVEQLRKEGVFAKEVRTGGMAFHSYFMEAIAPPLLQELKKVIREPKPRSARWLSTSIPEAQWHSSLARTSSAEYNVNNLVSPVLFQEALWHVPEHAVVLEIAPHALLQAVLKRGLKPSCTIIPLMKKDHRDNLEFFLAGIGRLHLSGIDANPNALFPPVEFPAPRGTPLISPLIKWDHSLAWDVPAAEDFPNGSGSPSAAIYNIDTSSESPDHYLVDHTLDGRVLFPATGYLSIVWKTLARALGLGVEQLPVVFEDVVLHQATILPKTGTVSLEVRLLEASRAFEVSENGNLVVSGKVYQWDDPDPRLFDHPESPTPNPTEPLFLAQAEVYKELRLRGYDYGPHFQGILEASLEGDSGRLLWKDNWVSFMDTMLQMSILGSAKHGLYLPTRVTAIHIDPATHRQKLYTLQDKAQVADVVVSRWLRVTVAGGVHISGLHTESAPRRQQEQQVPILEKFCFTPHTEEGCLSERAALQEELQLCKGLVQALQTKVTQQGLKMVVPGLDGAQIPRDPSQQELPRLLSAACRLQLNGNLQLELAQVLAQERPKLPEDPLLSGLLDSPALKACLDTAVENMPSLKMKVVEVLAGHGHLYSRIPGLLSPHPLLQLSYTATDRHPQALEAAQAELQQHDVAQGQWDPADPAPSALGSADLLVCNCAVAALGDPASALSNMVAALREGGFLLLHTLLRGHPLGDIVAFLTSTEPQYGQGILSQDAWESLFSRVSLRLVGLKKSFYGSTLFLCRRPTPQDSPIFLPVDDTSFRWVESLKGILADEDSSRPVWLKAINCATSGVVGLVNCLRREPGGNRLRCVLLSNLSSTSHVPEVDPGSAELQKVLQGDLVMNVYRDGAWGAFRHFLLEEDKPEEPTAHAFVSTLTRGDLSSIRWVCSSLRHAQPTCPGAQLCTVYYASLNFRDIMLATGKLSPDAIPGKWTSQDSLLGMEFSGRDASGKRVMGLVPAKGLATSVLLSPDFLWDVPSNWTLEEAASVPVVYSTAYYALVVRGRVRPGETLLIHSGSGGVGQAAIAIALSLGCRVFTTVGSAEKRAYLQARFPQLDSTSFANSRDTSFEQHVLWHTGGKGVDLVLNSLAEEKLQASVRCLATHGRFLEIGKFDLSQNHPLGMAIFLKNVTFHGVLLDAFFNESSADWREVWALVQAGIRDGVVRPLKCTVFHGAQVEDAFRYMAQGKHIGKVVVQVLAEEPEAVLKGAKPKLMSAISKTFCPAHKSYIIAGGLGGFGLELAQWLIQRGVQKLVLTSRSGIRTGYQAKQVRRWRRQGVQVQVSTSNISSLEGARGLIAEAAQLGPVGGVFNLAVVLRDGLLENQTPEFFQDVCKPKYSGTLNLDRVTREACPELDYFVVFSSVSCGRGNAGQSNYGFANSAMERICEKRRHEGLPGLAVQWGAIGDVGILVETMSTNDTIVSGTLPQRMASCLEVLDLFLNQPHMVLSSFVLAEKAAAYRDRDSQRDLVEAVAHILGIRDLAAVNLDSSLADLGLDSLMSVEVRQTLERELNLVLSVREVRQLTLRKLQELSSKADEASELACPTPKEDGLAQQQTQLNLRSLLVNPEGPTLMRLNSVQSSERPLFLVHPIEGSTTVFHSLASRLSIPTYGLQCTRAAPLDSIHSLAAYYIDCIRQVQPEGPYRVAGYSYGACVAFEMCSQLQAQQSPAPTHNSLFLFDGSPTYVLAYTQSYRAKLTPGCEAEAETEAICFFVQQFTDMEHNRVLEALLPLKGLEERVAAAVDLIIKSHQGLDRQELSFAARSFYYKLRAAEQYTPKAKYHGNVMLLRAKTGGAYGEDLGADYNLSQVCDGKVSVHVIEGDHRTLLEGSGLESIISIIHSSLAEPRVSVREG
Luciferin 4-monooxygenase, sequence (P08659 whole entry): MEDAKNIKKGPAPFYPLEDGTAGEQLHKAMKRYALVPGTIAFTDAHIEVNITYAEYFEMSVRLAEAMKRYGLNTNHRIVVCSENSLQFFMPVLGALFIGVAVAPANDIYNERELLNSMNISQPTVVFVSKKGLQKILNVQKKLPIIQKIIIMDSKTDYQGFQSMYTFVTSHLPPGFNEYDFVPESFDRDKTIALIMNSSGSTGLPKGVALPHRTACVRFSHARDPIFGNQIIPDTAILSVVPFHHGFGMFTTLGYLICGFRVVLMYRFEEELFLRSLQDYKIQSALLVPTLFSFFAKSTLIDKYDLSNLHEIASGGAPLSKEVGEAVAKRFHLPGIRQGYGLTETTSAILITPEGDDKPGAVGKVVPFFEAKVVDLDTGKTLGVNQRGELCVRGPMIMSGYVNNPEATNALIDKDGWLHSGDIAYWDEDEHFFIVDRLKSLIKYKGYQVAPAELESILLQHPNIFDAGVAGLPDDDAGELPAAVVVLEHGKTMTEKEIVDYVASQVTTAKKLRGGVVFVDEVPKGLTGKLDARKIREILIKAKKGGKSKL
Cytochrome P450 3A4, sequence (P08684 whole entry): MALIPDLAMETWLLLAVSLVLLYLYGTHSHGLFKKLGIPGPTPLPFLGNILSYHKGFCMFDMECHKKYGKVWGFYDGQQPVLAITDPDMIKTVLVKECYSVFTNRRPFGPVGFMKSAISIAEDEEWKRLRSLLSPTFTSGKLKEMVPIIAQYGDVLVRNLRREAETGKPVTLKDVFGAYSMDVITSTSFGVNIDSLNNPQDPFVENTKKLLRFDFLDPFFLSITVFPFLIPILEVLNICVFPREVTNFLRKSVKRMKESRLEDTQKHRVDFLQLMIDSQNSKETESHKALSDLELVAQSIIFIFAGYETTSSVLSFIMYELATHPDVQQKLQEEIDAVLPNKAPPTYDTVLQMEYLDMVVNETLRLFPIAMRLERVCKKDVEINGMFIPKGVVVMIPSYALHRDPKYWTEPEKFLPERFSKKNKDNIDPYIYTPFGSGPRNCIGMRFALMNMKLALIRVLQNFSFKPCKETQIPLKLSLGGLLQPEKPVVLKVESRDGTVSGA

O=C(Nc1nnc(-c2ccco2)o1)c1ccc(Cl)s1
IC50 [1]: 1.57 µM (active) | EC50 [2]: 10.1 µM (active) | CC50 [3]: > 40 µM (active) | EC50 [4]: 3.01 µM (active)

O=C(c1cc(O)nc2ccccc12)N1CCN(S(=O)(=O)c2ccc(Cl)cc2)CC1
IC50 [5]: 14.4 µM (active)

C[C@H](CO)N1C[C@H](C)[C@H](CN(C)S(=O)(=O)c2ccccc2)Oc2cc(-c3cccc(F)c3)ccc2S1(=O)=O
AC50 [6]: 10.7 µM (active) | AC50 [7]: 11 µM (active)

O=C(Cn1[nH]c(=O)c2ccccc2c1=O)NNC(=O)c1ccccc1
IC50 [5]: 18.6 µM (active)

CCCCCCCCNC(=O)c1cccnc1SCC(=O)Nc1ccc(OC)cc1OC
EC50 [8]: 12.3 µM (active) | EC50 [9]: 12.6 µM (active)

COc1ccc2c3c([nH]c2c1)[C@@H](CO)N(C(=O)Cc1ccccc1)CC31CCN(C(=O)Cc2ccccc2)CC1
AC50 [10]: 4.77 µM (active)

CC(C)(C)OC(=O)CNC(=O)c1[nH]cnc1C(=O)NCC(=O)OCc1ccccc1
IC50 [5]: > 79 µM (inactive)

CCCNC(=O)N1CCC2(CC1)CN(Cc1cccc(F)c1)[C@@H](CO)c1[nH]c3cc(OC)ccc3c12
AC50 [10]: 10.2 µM (active)

Cc1c(Cl)c([N+](=O)[O-])nn1CCCC(=O)Nc1cccc(Cl)c1
IC50 [11]: 16.2 µM (active) | IC50 [12]: 17.6 µM (active)

CC(C)NC(=O)N(C)C[C@H]1Oc2c(NC(=O)Nc3ccc(C(F)(F)F)cc3)cccc2C(=O)N([C@H](C)CO)C[C@@H]1C
IC50 [11]: 1.08 µM (active) | IC50 [12]: 0.842 µM (active)

O=C(CCc1nc(O)c2ccccc2n1)N1CCCc2ccccc21
IC50 [5]: > 79 µM (inactive)

O=c1[nH]c2cc([N+](=O)[O-])c([N+](=O)[O-])cc2[nH]c1=O [DNQX]
AC50 [13]: 31.6 µM (inconclusive) | IC50 [11]: 6.88 µM (active) | IC50 [12]: 8.63 µM (active) | AC50 [14]: 25.1 µM (inconclusive)

COC(=O)c1cccc(S(=O)(=O)N(Cc2ccco2)Cc2cc3cc(OC)ccc3nc2O)c1
IC50 [5]: 31.7 µM (inactive)

O=C(Cn1c(=O)c2sccc2n(Cc2ccc([N+](=O)[O-])cc2)c1=O)NCCc1ccccc1
IC50 [11]: 4.79 µM (active) | IC50 [12]: 5.6 µM (active)

Cc1ccc([N+](=O)[O-])cc1N=C(S)NCCc1ccccc1
IC50 [11]: 13.1 µM (active) | IC50 [12]: 12.1 µM (active)

Cc1cc(C)c2c(N)c(C(=O)N/N=C/c3cccnc3)sc2n1
IC50 [5]: > 79 µM (inactive)

COc1ccc(N2CC(C(=O)NCc3nnc(O)c4ccccc34)CC2=O)cc1 (stereo unspecified)
IC50 [5]: 12.9 µM (active)

O=C(Nc1ncc([N+](=O)[O-])s1)c1ccc2c(c1)OCO2
EC50 [15]: 13.5 µM (active) | IC50 [1]: 34.4 µM (active) | EC50 [16]: 2.39 µM (active) | EC50 [17]: 10.3 µM (active) | EC50 [18]: 7.3 µM (active) | EC50 [19]: > 150 µM (inconclusive) | EC50 [20]: 14.1 µM (active) | EC50 [21]: 0.324 µM (active) | CC50 [3]: 28.9 µM (active) | EC50 [22]: 3.42 µM (active) | EC50 [23]: 16.5 µM (active) | AC50 [24]: 21.2 µM (active) | EC50 [25]: 4.23 µM (active)

C[C@H]1CN([C@@H](C)CO)C(=O)c2c(c3ccccc3n2C)-c2ccccc2CO[C@@H]1CN(C)S(=O)(=O)c1ccccc1F
AC50 [10]: 3.81 µM (active)

COc1ccc(NC(=O)N(CCCN(C)C)Cc2cc3cc(OC)ccc3nc2O)cc1
IC50 [5]: > 79 µM (inactive)

O=[N+]([O-])c1ccc(S(=O)(=O)NN=Cc2ccc(Cl)c(Cl)c2)cc1
IC50 [11]: 2.68 µM (active) | IC50 [12]: 1.52 µM (active)

COc1ccc2c3c([nH]c2c1)[C@@H](CO)N(Cc1cccc(Cl)c1)CC31CN(C(C)=O)C1
AC50 [10]: 10.6 µM (active)

CCN1CCN(c2cc(N3CCc4ccccc4C3)c(F)cc2[N+](=O)[O-])CC1
EC50 [8]: 12.8 µM (active) | EC50 [9]: 12 µM (active)

COc1ccc(C2CC(c3cccs3)n3nc(N)nc3N2)cc1 (stereo unspecified)
IC50 [5]: > 79 µM (inactive)

CCCC(=O)N1CCC2(CC1)CN[C@@H](CO)c1[nH]c3cc(OC)ccc3c12
AC50 [10]: 6.24 µM (active)
